Reference: publication PMC6429214, “Design, Synthesis and Biological Evaluation of Isoxazole-Based CK1 Inhibitors Modified with Chiral Pyrrolidine Scaffolds” (Molecules, 2019)

Columns and labels:
Assay in all cases: 33PanQinase panel
Assay type in all cases: biochemical
TYRO3 = target: T1, TYRO3 (Homo sapiens, UniProt Q06418); conditions: TYRO3, 1 µM; read-out: Residual Activity (%)
T1 construct: purchased ProQinase
Experimental: (§1) Figure 5 Dendrogram representation of the selectivity profile of 29d at a concentration of 1 μM in a panel of 320 wild-type kinases (ProQinase, Freiburg, Germany). The residual kinase activity was determined compared to DMSO control. Images were generated using TREEspot Software Tool, DISCOVERX CORPORATION 2010. […]
(§2) Table S2. Selectivity profile of compound 29d. The inhibitor has been screened at a concentration of 1 µM over a panel of 320 wild-type protein kinases by ProQinase GmbH (Freiburg, Germany) using an activity-based radiometric 33PanQinase® assay. Results are presented as percentage of residual kinase activity relative to […]
(§3) control. The final DMSO concentration was 1 % in each reaction-mix. Classification of protein kinase families refers to Manning et al. (Manning, G.; Whyte, D. B.; Martinez, R.; Hunter, T.; Sudarsanam, S. The Protein Kinase Complement of the Human Genome. Science 2002, 298, 1912–1934): AGC = containing PKA, PKG, PKC families; […] = containing Cdk, MAPK, GSK3, CLK families; STE = homologs of yeast sterile 7, sterile 11, sterile 20 kinases; TK = tyrosine kinase; TKL = tyrosine kinase-like.
(§4) Kinase name Kinase family Residual Activity (%)

DAPK1 = target: T2, DAPK1 (Homo sapiens, UniProt P53355); conditions: DAPK1, 1 µM; read-out: Residual Activity (%)
T2 construct: purchased ProQinase
Experimental: as §1, §2, §3, §4

HIPK1 = target: T3, HIPK1 (Homo sapiens, UniProt Q86Z02); conditions: HIPK1, 1 µM; read-out: Residual Activity (%)
T3 construct: purchased ProQinase
Experimental: as §1, §2, §3, §4

PIM1 = target: T4, PIM1 (Homo sapiens, UniProt P11309); conditions: PIM1, 1 µM; read-out: Residual Activity (%)
T4 construct: purchased ProQinase
Experimental: as §1, §2, §3, §4

LRRK2 = target: T5, LRRK2 (Homo sapiens, UniProt Q5S007); conditions: LRRK2, 1 µM; read-out: Residual Activity (%)
T5 construct: purchased ProQinase
Experimental: as §1, §2, §3, §4

PBK = target: T6, PBK (Homo sapiens, UniProt Q96KB5); conditions: read-out: Residual Activity (%)
T6 construct: purchased ProQinase
Experimental: as §1, §2, §3, §4

CLK3 = target: T7, CLK3 (Homo sapiens, UniProt P49761); conditions: CLK3, 1 µM; read-out: Residual Activity (%)
T7 construct: purchased ProQinase
Experimental: as §1, §2, §3, §4

EPHA7 = target: T8, EPHA7 (Homo sapiens, UniProt Q15375); conditions: EPHA7, 1 µM; read-out: Residual Activity (%)
T8 construct: purchased ProQinase
Experimental: as §1, §2, §3, §4

CSK = target: T9, CSK (Homo sapiens, UniProt P41240); conditions: read-out: Residual Activity (%)
T9 construct: purchased ProQinase
Experimental: as §1, §2, §3, §4

FGF-R1 = target: T10, FGF-R1 (Homo sapiens, UniProt P11362); conditions: FGF-R1, 1 µM; read-out: Residual Activity (%)
T10 construct: purchased ProQinase
Experimental: as §1, §2, §3, §4

ALK (GST-HIS-tag) = target: T11, ALK (GST-HIS-tag) (Homo sapiens, UniProt Q9UM73); conditions: read-out: Residual Activity (%)
T11 construct: purchased ProQinase
Experimental: as §1, §2, §3, §4

TXK = target: T12, TXK (Homo sapiens, UniProt P42681); conditions: read-out: Residual Activity (%)
T12 construct: purchased ProQinase
Experimental: as §1, §2, §3, §4

MARK2 = target: T13, MARK2 (Homo sapiens, UniProt Q7KZI7); conditions: MARK2, 1 µM; read-out: Residual Activity (%)
T13 construct: purchased ProQinase
Experimental: as §1, §2, §3, §4

ACV-R1B = target: T14, ACV-R1B (Homo sapiens, UniProt P36896); conditions: read-out: Residual Activity (%)
T14 construct: purchased ProQinase
Experimental: as §1, §2, §3, §4

TTBK2 = target: T15, TTBK2 (Homo sapiens, UniProt Q6IQ55); conditions: TTBK2, 1 µM; read-out: Residual Activity (%)
T15 construct: purchased ProQinase
Experimental: as §1, §2, §3, §4

GSG2 = target: T16, GSG2 (Homo sapiens, UniProt Q8TF76); conditions: GSG2, 1 µM; read-out: Residual Activity (%)
T16 construct: purchased ProQinase
Experimental: as §1, §2, §3, §4

ACV-R2A = target: T17, ACV-R2A (Homo sapiens, UniProt P27037); conditions: read-out: Residual Activity (%)
T17 construct: purchased ProQinase
Experimental: as §1, §2, §3, §4

PHKG2 = target: T18, PHKG2 (Homo sapiens, UniProt P15735); conditions: PHKG2, 1 µM; read-out: Residual Activity (%)
T18 construct: purchased ProQinase
Experimental: as §1, §2, §3, §4

ACV-R2B = target: T19, ACV-R2B (Homo sapiens, UniProt Q13705); conditions: read-out: Residual Activity (%)
T19 construct: purchased ProQinase
Experimental: as §1, §2, §3, §4

AMPK-alpha1 aa1-550 = target: T20, AMPK-alpha1 aa1-550 (Homo sapiens, UniProt Q13131); conditions: AMPK-alpha1 aa1-550, 1 µM; read-out: Residual Activity (%)
T20 construct: purchased ProQinase
Experimental: as §1, §2, §3, §4

PKC-gamma = target: T21, PKC-gamma (Homo sapiens, UniProt P05129); conditions: read-out: Residual Activity (%)
T21 construct: purchased ProQinase
Experimental: as §1, §2, §3, §4

FGR = target: T22, FGR (Homo sapiens, UniProt P09769); conditions: read-out: Residual Activity (%)
T22 construct: purchased ProQinase
Experimental: as §1, §2, §3, §4

NLK = target: T23, NLK (Homo sapiens, UniProt Q9UBE8); conditions: read-out: Residual Activity (%)
T23 construct: purchased ProQinase
Experimental: as §1, §2, §3, §4

STK25 = target: T24, STK25 (Homo sapiens, UniProt O00506); conditions: STK25, 1 µM; read-out: Residual Activity (%)
T24 construct: purchased ProQinase
Experimental: as §1, §2, §3, §4

CAMK4 = target: T25, CAMK4 (Homo sapiens, UniProt Q16566); conditions: CAMK4, 1 µM; read-out: Residual Activity (%)
T25 construct: purchased ProQinase
Experimental: as §1, §2, §3, §4

RPS6KA5 = target: T26, RPS6KA5 (Homo sapiens, UniProt O75582); conditions: RPS6KA5, 1 µM; read-out: Residual Activity (%)
T26 construct: purchased ProQinase
Experimental: as §1, §2, §3, §4

EGF-R = target: T27, EGF-R (Homo sapiens, UniProt P00533); conditions: read-out: Residual Activity (%)
T27 construct: purchased ProQinase
Experimental: as §1, §2, §3, §4

GRK6 = target: T28, GRK6 (Homo sapiens, UniProt P43250); conditions: GRK6, 1 µM; read-out: Residual Activity (%)
T28 construct: purchased ProQinase
Experimental: as §1, §2, §3, §4

IRAK1 = target: T29, IRAK1 (Homo sapiens, UniProt P51617); conditions: IRAK1, 1 µM; read-out: Residual Activity (%)
T29 construct: purchased ProQinase
Experimental: as §1, §2, §3, §4

CK1-delta = target: T30, CK1-delta (Homo sapiens, UniProt P48730); conditions: read-out: Residual Activity (%)
T30 construct: purchased ProQinase
Experimental: as §1, §2, §3, §4

T27 sequence (P00533 25-1210): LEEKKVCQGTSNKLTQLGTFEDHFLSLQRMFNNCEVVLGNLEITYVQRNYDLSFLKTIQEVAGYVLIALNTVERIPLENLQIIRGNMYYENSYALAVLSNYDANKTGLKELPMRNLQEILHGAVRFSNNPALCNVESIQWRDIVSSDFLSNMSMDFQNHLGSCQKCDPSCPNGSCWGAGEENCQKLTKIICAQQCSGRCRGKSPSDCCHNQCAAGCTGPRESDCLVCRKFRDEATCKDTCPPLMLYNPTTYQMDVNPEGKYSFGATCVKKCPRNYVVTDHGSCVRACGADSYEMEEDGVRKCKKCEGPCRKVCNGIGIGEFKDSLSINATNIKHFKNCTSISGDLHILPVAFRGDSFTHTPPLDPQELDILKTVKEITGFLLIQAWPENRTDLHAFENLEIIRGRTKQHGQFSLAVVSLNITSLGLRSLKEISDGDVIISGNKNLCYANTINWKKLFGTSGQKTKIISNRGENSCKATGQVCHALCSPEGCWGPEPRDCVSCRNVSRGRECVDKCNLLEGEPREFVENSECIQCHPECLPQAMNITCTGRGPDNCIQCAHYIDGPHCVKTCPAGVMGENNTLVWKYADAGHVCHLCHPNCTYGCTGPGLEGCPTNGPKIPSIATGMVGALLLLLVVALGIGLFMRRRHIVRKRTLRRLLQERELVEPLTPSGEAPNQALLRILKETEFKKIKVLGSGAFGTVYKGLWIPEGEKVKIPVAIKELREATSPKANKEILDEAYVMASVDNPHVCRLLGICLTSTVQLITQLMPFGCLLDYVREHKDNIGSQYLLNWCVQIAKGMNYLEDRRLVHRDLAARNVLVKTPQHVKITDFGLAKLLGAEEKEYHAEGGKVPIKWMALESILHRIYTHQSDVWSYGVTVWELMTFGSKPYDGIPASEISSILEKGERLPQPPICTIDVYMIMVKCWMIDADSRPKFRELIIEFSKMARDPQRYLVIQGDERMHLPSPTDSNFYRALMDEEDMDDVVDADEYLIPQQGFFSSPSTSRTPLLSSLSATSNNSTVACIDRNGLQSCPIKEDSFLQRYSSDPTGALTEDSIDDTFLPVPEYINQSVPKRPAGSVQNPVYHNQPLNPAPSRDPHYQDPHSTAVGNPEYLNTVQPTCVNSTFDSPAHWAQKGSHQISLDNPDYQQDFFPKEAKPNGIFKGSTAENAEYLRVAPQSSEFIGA
T12 sequence (P42681 whole entry): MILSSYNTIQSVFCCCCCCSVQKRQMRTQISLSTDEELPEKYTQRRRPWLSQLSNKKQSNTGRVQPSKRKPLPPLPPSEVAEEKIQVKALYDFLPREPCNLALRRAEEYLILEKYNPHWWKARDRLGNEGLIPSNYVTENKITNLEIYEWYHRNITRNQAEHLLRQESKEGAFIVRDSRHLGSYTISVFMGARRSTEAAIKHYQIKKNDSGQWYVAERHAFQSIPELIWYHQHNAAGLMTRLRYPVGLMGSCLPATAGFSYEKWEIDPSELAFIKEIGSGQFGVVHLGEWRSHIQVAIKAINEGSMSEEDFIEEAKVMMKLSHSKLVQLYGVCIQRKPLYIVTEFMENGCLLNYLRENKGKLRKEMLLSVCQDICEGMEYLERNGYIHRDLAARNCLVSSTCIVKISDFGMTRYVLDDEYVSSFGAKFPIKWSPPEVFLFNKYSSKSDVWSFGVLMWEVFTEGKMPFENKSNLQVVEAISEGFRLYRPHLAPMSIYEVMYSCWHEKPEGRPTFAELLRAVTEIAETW
T28 sequence (P43250 whole entry): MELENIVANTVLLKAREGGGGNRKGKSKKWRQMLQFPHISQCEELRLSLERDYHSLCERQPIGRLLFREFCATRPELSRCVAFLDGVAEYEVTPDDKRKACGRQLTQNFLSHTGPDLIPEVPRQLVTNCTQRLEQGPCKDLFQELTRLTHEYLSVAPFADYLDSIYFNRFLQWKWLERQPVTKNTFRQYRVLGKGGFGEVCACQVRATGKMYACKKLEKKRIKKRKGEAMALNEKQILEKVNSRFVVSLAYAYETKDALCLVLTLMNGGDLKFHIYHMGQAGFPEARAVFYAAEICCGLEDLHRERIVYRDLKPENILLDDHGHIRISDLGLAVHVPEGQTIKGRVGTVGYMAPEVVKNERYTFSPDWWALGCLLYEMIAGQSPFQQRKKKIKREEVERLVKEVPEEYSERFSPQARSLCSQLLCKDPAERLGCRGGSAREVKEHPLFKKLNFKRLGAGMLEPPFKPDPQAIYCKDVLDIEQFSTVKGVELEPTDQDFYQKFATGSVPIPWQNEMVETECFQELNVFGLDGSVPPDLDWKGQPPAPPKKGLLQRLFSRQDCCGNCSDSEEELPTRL
T25 sequence (Q16566 whole entry): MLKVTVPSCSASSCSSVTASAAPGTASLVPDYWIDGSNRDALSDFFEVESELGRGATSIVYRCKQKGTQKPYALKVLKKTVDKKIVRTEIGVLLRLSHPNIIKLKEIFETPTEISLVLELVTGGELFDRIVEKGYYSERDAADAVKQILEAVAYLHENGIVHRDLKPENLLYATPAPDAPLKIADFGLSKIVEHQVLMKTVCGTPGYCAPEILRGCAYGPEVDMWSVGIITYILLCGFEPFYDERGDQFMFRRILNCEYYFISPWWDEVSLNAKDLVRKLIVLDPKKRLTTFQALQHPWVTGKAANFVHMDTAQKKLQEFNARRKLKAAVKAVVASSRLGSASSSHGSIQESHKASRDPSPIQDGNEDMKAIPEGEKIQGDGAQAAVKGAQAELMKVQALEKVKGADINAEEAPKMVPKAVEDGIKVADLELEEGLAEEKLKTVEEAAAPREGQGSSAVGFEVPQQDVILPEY
T24 sequence (O00506 whole entry): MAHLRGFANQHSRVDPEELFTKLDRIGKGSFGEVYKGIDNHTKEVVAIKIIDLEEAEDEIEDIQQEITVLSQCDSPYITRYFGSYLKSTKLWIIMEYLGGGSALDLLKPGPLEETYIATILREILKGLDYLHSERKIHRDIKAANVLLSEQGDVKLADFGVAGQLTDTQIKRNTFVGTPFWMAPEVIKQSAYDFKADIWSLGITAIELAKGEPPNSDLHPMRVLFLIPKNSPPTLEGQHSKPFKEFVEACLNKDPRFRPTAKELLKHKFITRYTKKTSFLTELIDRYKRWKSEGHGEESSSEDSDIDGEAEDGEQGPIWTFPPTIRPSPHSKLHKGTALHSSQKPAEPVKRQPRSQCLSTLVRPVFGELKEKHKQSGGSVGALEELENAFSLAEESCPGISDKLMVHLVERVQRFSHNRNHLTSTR
T3 sequence (Q86Z02 whole entry): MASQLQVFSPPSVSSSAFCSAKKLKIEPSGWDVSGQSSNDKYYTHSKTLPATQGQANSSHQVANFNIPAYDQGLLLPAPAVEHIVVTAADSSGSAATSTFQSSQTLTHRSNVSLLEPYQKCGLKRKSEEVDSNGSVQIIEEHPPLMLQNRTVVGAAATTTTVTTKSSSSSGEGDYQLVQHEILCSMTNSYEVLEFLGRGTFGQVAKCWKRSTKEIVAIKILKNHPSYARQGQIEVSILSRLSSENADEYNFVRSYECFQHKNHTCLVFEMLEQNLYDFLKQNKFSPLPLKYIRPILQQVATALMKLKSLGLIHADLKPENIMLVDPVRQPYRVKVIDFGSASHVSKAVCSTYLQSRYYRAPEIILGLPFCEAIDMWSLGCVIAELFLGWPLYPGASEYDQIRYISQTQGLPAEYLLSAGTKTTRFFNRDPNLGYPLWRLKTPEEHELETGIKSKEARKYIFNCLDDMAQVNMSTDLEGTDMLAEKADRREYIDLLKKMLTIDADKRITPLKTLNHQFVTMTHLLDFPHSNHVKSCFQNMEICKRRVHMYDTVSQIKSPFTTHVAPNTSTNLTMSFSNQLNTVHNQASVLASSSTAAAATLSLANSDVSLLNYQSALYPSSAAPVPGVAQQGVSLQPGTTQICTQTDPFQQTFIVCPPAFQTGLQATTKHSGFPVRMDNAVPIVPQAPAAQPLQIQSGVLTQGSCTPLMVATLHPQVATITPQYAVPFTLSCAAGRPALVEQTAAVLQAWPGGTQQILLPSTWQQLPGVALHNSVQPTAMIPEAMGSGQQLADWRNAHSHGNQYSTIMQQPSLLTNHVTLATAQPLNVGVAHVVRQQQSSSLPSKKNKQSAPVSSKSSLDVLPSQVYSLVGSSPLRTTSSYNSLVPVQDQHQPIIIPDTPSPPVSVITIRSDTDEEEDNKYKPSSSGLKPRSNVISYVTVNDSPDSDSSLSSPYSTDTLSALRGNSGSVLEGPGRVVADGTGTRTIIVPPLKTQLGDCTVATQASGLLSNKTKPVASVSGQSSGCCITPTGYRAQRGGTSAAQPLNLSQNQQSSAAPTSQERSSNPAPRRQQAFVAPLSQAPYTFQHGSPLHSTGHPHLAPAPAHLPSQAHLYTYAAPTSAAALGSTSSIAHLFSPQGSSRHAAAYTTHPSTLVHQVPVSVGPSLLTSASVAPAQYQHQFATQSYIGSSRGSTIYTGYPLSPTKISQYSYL
T23 sequence (Q9UBE8 whole entry): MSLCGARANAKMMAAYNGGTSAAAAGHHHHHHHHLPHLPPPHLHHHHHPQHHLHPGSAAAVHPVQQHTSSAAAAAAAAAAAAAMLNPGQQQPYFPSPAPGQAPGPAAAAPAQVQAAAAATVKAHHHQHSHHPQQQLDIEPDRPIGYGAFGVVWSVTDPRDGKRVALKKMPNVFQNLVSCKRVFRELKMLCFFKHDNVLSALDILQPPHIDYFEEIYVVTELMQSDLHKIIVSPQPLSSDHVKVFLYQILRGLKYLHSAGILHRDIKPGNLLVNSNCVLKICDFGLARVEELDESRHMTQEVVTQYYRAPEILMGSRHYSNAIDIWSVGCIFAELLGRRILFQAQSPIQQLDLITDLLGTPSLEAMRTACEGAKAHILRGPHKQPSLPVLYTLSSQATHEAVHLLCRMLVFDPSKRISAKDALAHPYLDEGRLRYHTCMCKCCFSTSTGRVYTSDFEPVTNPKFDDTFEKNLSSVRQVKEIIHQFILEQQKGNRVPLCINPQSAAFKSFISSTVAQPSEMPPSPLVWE

COc1ccc(-c2cc(C(=O)Nc3cc(-c4c(-c5ccc(F)cc5)noc4C(C)C)ccn3)n(CC3NCC(O)C3O)c2)cc1 (stereo not drawn) [29d]
remaining activity at 1 µM (TYRO3): 115%
remaining activity at 1 µM (DAPK1): 101%
remaining activity at 1 µM (HIPK1): 98%
remaining activity at 1 µM (PIM1): 94%
remaining activity at 1 µM (LRRK2): 100%
remaining activity at 1 µM (PBK): 89%
remaining activity at 1 µM (CLK3): 92%
remaining activity at 1 µM (EPHA7): 100%
remaining activity at 1 µM (CSK): 115%
remaining activity at 1 µM (FGF-R1): 138%
remaining activity at 1 µM (ALK (GST-HIS-tag)): 105%
remaining activity at 1 µM (TXK): 119%
remaining activity at 1 µM (MARK2): 97%
remaining activity at 1 µM (ACV-R1B): 103%
remaining activity at 1 µM (TTBK2): 101%
remaining activity at 1 µM (GSG2): 91%
remaining activity at 1 µM (ACV-R2A): 125%
remaining activity at 1 µM (PHKG2): 93%
remaining activity at 1 µM (ACV-R2B): 127%
remaining activity at 1 µM (AMPK-alpha1 aa1-550): 99%
remaining activity at 1 µM (PKC-gamma): 112%
remaining activity at 1 µM (FGR): 107%
remaining activity at 1 µM (NLK): 71%
remaining activity at 1 µM (STK25): 98%
remaining activity at 1 µM (CAMK4): 102%
remaining activity at 1 µM (RPS6KA5): 101%
remaining activity at 1 µM (EGF-R): 108%
remaining activity at 1 µM (GRK6): 101%
remaining activity at 1 µM (IRAK1): 91%
remaining activity at 1 µM (CK1-delta): 1%
